# “Also recorded” adds a separate entry of the source.
# Assays:
# L929 cells = assay: Apoptosis nuclear morphology, L929 cells; type: cell-based, mouse; details: 30 hours
# Description: (§1) Cells were plated into 96-well plates at densities of 3×10^3 to 1×10^4 cells/well. The following day apoptotic inducers were added at indicated concentrations and cells were incubated for indicated time periods (usually 16-30 hours). The next day medium was removed and cells were stained with 5 μg/ml Hoechst (Molecular Probes, Inc.) in fresh medium and incubated for 30 minutes at 37° C. Cells were washed in Hank's Balanced Salt Solution (HBSS) and fixed with 3.7% formaldehyde in HBSS at room temperature. Cells were washed 2×with HBSS at room temperature and the plate was sealed.
# (§2) Quantitation of changes in nuclear morphology upon induction of apoptosis was accomplished by (1) measuring the effective size of the nuclear region; and (2) measuring the degree of convolution of the perimeter.
# MCF-7 cells = assay: Apoptosis nuclear morphology, MCF-7 cells; type: cell-based; details: 30 hours
# Description: as §1, §2
# [1] = test system: microtubule arrays (tubulin-GFP chimera); assay: Microtubule disruption assay, LLCPK cells with tubulin-GFP biosensor; type: cell-based, pig; details: 10-500 nM, 12 hour time point
# Description: For microtubule disruption assays, LLCPK cells stably transfected with a tubulin-GFP biosensor plasmid were plated on 96 well cell culture dishes at 50-60% confluence and cultured overnight at 37° C., 5% CO2. […] The cells were then observed with the cell screening system described above, at a 12 hour time point.
compound,measurement,setting,value
CC(=O)O[C@H]1C(=O)[C@@]2(C)[C@H]([C@H](OC(=O)c3ccccc3)[C@]3(O)C[C@H](OC(=O)[C@H](O)[C@@H](NC(=O)c4ccccc4)c4ccccc4)C(C)=C1C3(C)C)[C@]1(OC(C)=O)CO[C@@H]1C[C@@H]2O [paclitaxel],change in nuclear morphology,L929 cells,dose-dependent change in nuclear morphology; also recorded: classic nuclear fragmentation
same,change in nuclear morphology,MCF-7 cells,nuclear fragmentation
same,Response of microtubule arrays,[1],Stabilization

# From patent US6875578B2, “System for cell-based screening” (priority 1997, dated 2005)
